From patent US20230382925A1, “MODULATORS OF CYSTIC FIBROSIS TRANSMEMBRANE CONDUCTANCE REGULATOR” (VERTEX PHARMACEUTICALS INCORPORATED, priority 2020, published 2023)
Where two headings read alike, the source gives them in different places.

Target: CFTR (Homo sapiens, UniProt P13569)
Test: Membrane Potential Dye, Enteroid Assay B
Type: cell-based
Outline: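 Human intestinal enteroid cells exposed to compound 18-24 h at 37 °C, then loaded with methyl oxonol membrane-potential dye plus CaCC blockers. Chloride transport triggered in chloride-free buffer with 10 μM forskolin, 100 μM IBMX, 300 nM Compound III; fluorescence read 15 min, expressed as % of triple-corrector/potentiator combination control.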

[1] = Table 10, read-out: Ent. B EC50

Sequence of CFTR (P13569 with tags, fused parts or gaps DEL508-508): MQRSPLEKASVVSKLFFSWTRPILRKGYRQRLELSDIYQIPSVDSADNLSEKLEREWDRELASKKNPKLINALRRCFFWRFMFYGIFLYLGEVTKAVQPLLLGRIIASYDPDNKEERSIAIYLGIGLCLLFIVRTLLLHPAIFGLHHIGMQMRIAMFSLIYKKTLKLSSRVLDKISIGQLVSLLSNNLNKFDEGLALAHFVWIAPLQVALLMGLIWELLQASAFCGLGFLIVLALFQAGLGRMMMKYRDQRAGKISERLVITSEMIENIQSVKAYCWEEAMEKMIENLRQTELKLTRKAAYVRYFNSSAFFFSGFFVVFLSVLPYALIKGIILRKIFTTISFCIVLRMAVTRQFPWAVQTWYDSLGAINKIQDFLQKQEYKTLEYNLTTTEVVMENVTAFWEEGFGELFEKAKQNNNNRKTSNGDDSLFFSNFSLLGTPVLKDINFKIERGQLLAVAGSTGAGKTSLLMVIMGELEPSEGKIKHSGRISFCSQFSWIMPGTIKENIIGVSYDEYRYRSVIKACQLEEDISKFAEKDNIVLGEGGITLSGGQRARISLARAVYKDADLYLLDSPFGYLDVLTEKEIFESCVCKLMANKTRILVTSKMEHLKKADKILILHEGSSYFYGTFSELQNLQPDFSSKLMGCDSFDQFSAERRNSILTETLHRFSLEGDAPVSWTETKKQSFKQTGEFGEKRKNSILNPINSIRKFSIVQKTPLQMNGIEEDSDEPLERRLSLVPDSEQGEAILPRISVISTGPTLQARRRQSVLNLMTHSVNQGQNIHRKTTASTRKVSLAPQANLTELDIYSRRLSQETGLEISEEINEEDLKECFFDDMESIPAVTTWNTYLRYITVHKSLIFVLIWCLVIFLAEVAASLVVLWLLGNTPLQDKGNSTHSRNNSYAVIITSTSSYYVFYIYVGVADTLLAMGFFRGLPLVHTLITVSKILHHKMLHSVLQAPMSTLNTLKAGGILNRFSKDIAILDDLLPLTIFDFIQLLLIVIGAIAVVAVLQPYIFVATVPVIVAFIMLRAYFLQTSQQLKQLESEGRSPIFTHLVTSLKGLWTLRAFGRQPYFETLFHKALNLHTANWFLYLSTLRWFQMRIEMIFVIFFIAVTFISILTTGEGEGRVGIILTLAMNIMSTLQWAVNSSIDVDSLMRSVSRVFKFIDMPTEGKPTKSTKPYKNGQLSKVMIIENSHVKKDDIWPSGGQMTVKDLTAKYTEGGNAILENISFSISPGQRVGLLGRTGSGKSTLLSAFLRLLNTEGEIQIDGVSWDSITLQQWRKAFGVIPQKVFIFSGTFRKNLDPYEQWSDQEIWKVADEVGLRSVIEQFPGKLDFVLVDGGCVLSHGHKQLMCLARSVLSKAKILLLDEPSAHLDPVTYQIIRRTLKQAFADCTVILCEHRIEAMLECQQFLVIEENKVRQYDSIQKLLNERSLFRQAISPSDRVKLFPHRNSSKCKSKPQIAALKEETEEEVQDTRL

Cc1cccc(C)c1-c1cc2nc(n1)NS(=O)(=O)c1cccc(c1)C(=O)N(C1CC(N(C)C3CCC3)C1)[C@H](CC(C)C)CO2 (stereo partly drawn) [Compound 376]
Ent. B Max Activity (%) (Table 9): +++ (+++ is >60%)
EC50 (Table 9, read-out: Ent. B EC50): < 1 µM

Cc1cccc(C)c1-c1cc2nc(n1)NS(=O)(=O)c1cccc(c1)C(=O)N(C1CC(NCCC(C)C)C1)[C@H](CC(C)C)CO2 (stereo partly drawn) [Compound 377]
Ent. B Max Activity (%) (Table 9): +++ (+++ is >60%)
EC50 (Table 9, read-out: Ent. B EC50): < 1 µM

Cc1cccc(C)c1-c1cc2nc(n1)NS(=O)(=O)c1cccc(c1)C(=O)N([C@H]1C[C@@H](N3C[C@@H](C)O[C@@H](C)C3)C1)[C@H](CC(C)C)CO2 [Compound 380]
Ent. B Max Activity (%) (Table 9): +++ (+++ is >60%)
EC50 (Table 9, read-out: Ent. B EC50): < 1 µM

COCCN(C)C1CC(N2C(=O)c3cccc(c3)S(=O)(=O)Nc3nc(cc(-c4c(C)cccc4C)n3)OC[C@H]2CC(C)C)C1 (stereo partly drawn) [Compound 382]
Ent. B Max Activity (%) (Table 9): +++ (+++ is >60%)
EC50 (Table 9, read-out: Ent. B EC50): < 1 µM

Cc1cccc(C)c1-c1cc2nc(n1)NS(=O)(=O)c1cccc(c1)C(=O)N(C1CC(N3CCN(C)C(=O)C3)C1)[C@H](CC(C)C)CO2 (stereo partly drawn) [Compound 384]
Ent. B Max Activity (%) (Table 9): +++ (+++ is >60%)
EC50 (Table 9, read-out: Ent. B EC50): < 1 µM

COCCN1CCN([C@H]2C[C@@H](N3C(=O)c4cccc(c4)S(=O)(=O)Nc4nc(cc(-c5c(C)cccc5C)n4)OC[C@H]3CC(C)C)C2)CC1=O [Compound 385]
Ent. B Max Activity (%) (Table 9): +++ (+++ is >60%)
EC50 (Table 9, read-out: Ent. B EC50): < 1 µM

Cc1cccc(C)c1-c1cc2nc(n1)NS(=O)(=O)c1cccc(c1)C(=O)N([C@H]1C[C@@H](N3CCC(OCC4CC4)CC3)C1)[C@H](CC(C)C)CO2 [Compound 386]
Ent. B Max Activity (%) (Table 9): +++ (+++ is >60%)
EC50 (Table 9, read-out: Ent. B EC50): < 1 µM

Cc1cccc(C)c1-c1cc2nc(n1)NS(=O)(=O)c1cccc(c1)C(=O)N([C@H]1C[C@@H](N3CCOCC3)C1)[C@H](CC(C)C)CO2 [Compound 387]
Ent. B Max Activity (%) (Table 9): +++ (+++ is >60%)
EC50 (Table 9, read-out: Ent. B EC50): < 1 µM

Cc1cccc(C)c1-c1cc2nc(n1)NS(=O)(=O)c1cccc(c1)C(=O)N([C@H]1C[C@@H](N3CCCCC3)C1)[C@H](CC(C)C)CO2 [Compound 388]
Ent. B Max Activity (%) (Table 9): +++ (+++ is >60%)
EC50 (Table 9, read-out: Ent. B EC50): < 1 µM

Cc1cccc(C)c1-c1cc2cc(n1)NS(=O)(=O)c1cccc(c1)C(=O)N(C1CC3(CC3)C1)[C@H](CC(C)C)CO2 [Compound 389]
Ent. B Max Activity (%): +++ (+++ is >60%)
EC50 (read-out: Ent. B EC50): < 1 µM

Cc1cccc(C)c1-c1cc2nc(n1)NS(=O)(=O)c1cccc(n1)C(=O)N(C1CC3(CCN(C)CC3)C1)[C@H](CC(C)C)CO2 [Compound 390]
Ent. B Max Activity (%): +++ (+++ is >60%)
EC50 (read-out: Ent. B EC50): < 1 µM

COC(=O)N1CCC2(CC1)CC(N1C(=O)c3cccc(n3)S(=O)(=O)Nc3nc(cc(-c4c(C)cccc4C)n3)OC[C@H]1CC(C)C)C2 [Compound 391]
Ent. B Max Activity (%): +++ (+++ is >60%)
EC50 (read-out: Ent. B EC50): < 1 µM

Cc1cccc(C)c1-c1cc2nc(n1)NS(=O)(=O)c1cccc(n1)C(=O)N(C1CC3(CCNCC3)C1)[C@H](CC(C)C)CO2 [Compound 392]
Ent. B Max Activity (%): +++ (+++ is >60%)
EC50 (read-out: Ent. B EC50): 1 to 3 µM

CC(C)C[C@@H]1COc2cc(C3CCCCC3(C)C)nc(n2)NS(=O)(=O)c2cccc(c2)C(=O)N1C1CC2(CCN(C)CC2)C1 (stereo partly drawn) [Compound 394]
Ent. B Max Activity (%): +++ (+++ is >60%)
EC50 (read-out: Ent. B EC50): 1 to 3 µM

CC(C)(C)C[C@@H]1COc2cc([C@H]3CCCCC3(C)C)nc(n2)NS(=O)(=O)c2cccc(c2)C(=O)N1C1CC2(CC2)C1 [Compound 397]
Ent. B Max Activity (%): ++ (++ is 30-60%)
EC50 (read-out: Ent. B EC50): < 1 µM

CCC(O)(CC)[C@H]1CC2(C[C@H](N3C(=O)c4cccc(c4)S(=O)(=O)Nc4nc(cc(-c5c(C)cccc5C)n4)OC[C@H]3CC(C)(C)C)C2)C1 (stereo partly drawn) [Compound 408]
Ent. B Max Activity (%) (Table 10): +++ (+++ is >60%)
EC50 [1]: < 1 µM

CCC(O)(CC)[C@H]1CC2(C[C@H](N3C(=O)c4cccc(c4)S(=O)(=O)Nc4nc(cc(-c5c(C)cccc5C)n4)OC[C@H]3CC(C)(C)C)C2)C1 (stereo partly drawn) [Compound 409]
Ent. B Max Activity (%) (Table 10): +++ (+++ is >60%)
EC50 [1]: < 1 µM

Cc1cccc(C)c1-c1cc2nc(n1)NS(=O)(=O)c1cccc(n1)C(=O)N([C@H]1C[C@@H](C(C)(C)O)C1)[C@H](CC(C)(C)C)CO2 [Compound 410]
Ent. B Max Activity (%) (Table 10): +++ (+++ is >60%)
EC50 [1]: < 1 µM

Cc1cccc(C)c1-c1cc2nc(n1)NS(=O)(=O)c1cccc(n1)C(=O)N(C1CC3(CC(C(=O)N(C)C)C3)C1)[C@H](CC(C)(C)C)CO2 (stereo partly drawn) [Compound 414]
Ent. B Max Activity (%) (Table 10): +++ (+++ is >60%)
EC50 [1]: < 1 µM

Cc1cccc(C)c1-c1cc2nc(n1)NS(=O)(=O)c1cccc(n1)C(=O)N(C1CC3(CC(C(=O)N(C)C)C3)C1)[C@H](CC(C)(C)C)CO2 (stereo partly drawn) [Compound 415]
Ent. B Max Activity (%) (Table 10): +++ (+++ is >60%)
EC50 [1]: < 1 µM

Cc1cccc(C)c1-c1cc2nc(n1)NS(=O)(=O)c1cccc(c1)C(=O)N(C1CC3(CCN(C(=O)C(C)C)CC3)C1)[C@H](CC(C)(C)C(F)(F)F)CO2 [Compound 416]
Ent. B Max Activity (%) (Table 10): +++ (+++ is >60%)
EC50 [1]: < 1 µM
